Measurements taken from patent US20170079979A1, “THERAPY FOR SOLID TUMORS” (Children's Hospital Medical Center, priority 2014, published 2017).
Where a name gives a salt, the structure may show the parent alone.

Legend:
parental BaF3 cells = details: cited from earlier work; for effect of the drug combination: Imatinib combined with BCI
BaF3-BCR-ABL cells = details: Imatinib combined with BCI, cited from earlier work
H1703 cells = test: H1703 lung sarcoma cell survival with EGF and sunitinib (FIG. 3); assay type: cell-based; details: concomitant inhibition of Dusp-1 by BCI and c-Fos by either curcumin or DFC (combination), FIG. 3 right panel
Procedure: H1703 cell line was derived from the lung sarcoma, which is driven by PDGFRA as this cell line has amplified the PDGFRA. This group of patients is treated with sunitinib.

RT4 cells = test: RT4 bladder cancer cell survival with EGF and PLX4032 (FIG. 4); assay type: cell-based; details: FIG. 4 right panel; for cell survival: concomitant inhibition of Dusp-1 by BCI and c-Fos by either curcumin or DFC (combination)
Procedure: To determine the effect of c-Fos and Dusp-1 inhibition with the tyrosine kinase inhibitor PLX4032, RT4 cells were assayed, as a model bladder cancer, shown in FIG. 4. This cell line was derived from bladder cancer patients, which has amplification of EGFR.

AU565 cells = test: AU565 breast cancer cell survival with NRG1 and lapatinib (FIG. 1); assay type: cell-based; details: for cell survival: concomitant inhibition of Dusp-1 by BCI and c-Fos by either curcumin or DFC (combination), FIG. 1 right panel
Procedure: AU565 cell line was established from the malignant pleural effusion of the mammary gland, which overexpresses the HER2. This class of tumors is treated by lapatinib. This treatment is not curative and relapse is common because cancer stem cells are not responsive to the treatment.

HCC827 cells = test: HCC827 lung cancer cell survival with HGF and erlotinib (FIG. 2); assay type: cell-based; details: concomitant inhibition of Dusp-1 by BCI and c-Fos by either curcumin or DFC (combination), FIG. 2 right panel
Source text: HCC827 cell line was derived from the lung adenocarcinoma. This lung adenocarcinoma has an acquired mutation in the EGFR tyrosine kinase domain (E746-A750 deletion). […] Most patients develop resistance by acquiring gatekeeper mutation the kinase domain and single TKI treatment is not curative because cancer stem cells are refractory to the treatment. In addition overexpression of growth factor HGF leading to activation of MET is a more frequent way of bypassing the EGFR mediated survival in this tumor model. Besides, cancer stem cells in the presence of growth factor are not addicted to the oncogene.

[1] = system: leukemia initiating cells (LIC); details: cited from earlier work

Structure (SMILES): O=C1/C(=C/c2ccccc2)C(NC2CCCCC2)c2ccccc21 (centres unmarked) [BCI, (E)-2-benzylidene-3-(cyclohexylamino)-2,3-dihydro-1H-inden-1-one]
- effect of the drug combination (parental BaF3 cells): no effect
- effect of the drug combination (BaF3-BCR-ABL cells; BCR-ABL positive cells): no effect
- sensitivity in cell proliferation assay (BaF3-BCR-ABL cells; BaF3-BCR-ABL cells with c-Fos knockdown): fully sensitive
- cell survival (H1703 cells): completely suppresses the cell survival
- cell survival (RT4 cells): completely suppresses the cell survival
- cell survival (AU565 cells): completely suppresses the cell survival
- cell survival (HCC827 cells): completely suppresses the cell survival

Structure (SMILES): COc1cc(/C=C/C(=O)C(=Cc2ccc(F)c(F)c2)C(=O)/C=C/c2ccc(O)c(OC)c2)ccc1O [DFC, difluorinated curcumin]
- cell survival (H1703 cells): completely suppresses the cell survival
- cell survival (RT4 cells): completely suppresses the cell survival
- cell survival (AU565 cells): completely suppresses the cell survival

Structure (SMILES): Cc1ccc(NC(=O)c2ccc(CN3CCN(C)CC3)cc2)cc1Nc1nccc(-c2cccnc2)n1 [Imatinib, Imatinib mesylate]
- effect of the drug combination (parental BaF3 cells): no effect
- survival and apoptosis (parental BaF3 cells; inhibition of c-Fos and Dusp-1 together with Imatinib treatment): no effect
- survival of patients with leukemia [1]: improved the survival
- elimination of leukemia initiating cells (LIC) ([1]; patients with leukemia): did not eliminate

Structure (SMILES): COc1cc(/C=C/C(=O)CC(=O)/C=C/c2ccc(O)c(OC)c2)ccc1O [curcumin]
- cell survival (H1703 cells): completely suppresses the cell survival
- relative potency of the BCI combination (curcumin versus DFC) (RT4 cells; combination with BCI): more potent
- cell survival (RT4 cells): completely suppresses the cell survival
- cell survival (AU565 cells): completely suppresses the cell survival
- cell survival (HCC827 cells): completely suppresses the cell survival

Structure (SMILES): CS(=O)(=O)CCNCc1ccc(-c2ccc3ncnc(Nc4ccc(OCc5cccc(F)c5)c(Cl)c4)c3c2)o1 [lapatinib]
- TKI response on addition of growth factor (AU565 cells; addition of NRG1, lapatinib): confer resistance
